Patent US11179322B2, “Methods and compositions for treating tumors with TTFields and sorafenib” (Novocure GmbH, priority 2018, dated 2021)

How the values were obtained:
HepG2 cells [1] = test: Cytotoxicity assay and overall effect (cell counts by flow cytometry); type: cell-based, human
Description: (§1) All combination experiments were performed at a frequency of 150 kHz. In these examples, the electric field intensity was 1.0 V/cm for HepG2 and 1.7 V/cm for Huh-7D12 cells. Both cell lines were grown at various sorafenib concentrations (0.1-3.0 μM), and were treated with TTFields for 72 hours. […] The number of cells was determined at the end of treatment and is expressed as a percentage of control cells.
(§2) Sorafenib was obtained from BioVision, USA.
(§3) TTFields (1.0-1.7 V/cm RMS, 150 kHz) were applied for 72 hours to cell lines using the Inovitro™ system. At the end of treatment, inhibition of tumor cell growth was analysed quantitatively based on cell counts performed on EC800 flow cytometer (Sony Biotechnology, Japan).

Huh-7D12 cells [2] = test: as above; type: cell-based, human
Description: as §1, §2, §3

HepG2 cells [3] = test: Clonogenic survival; type: cell-based, human
Description: as §2
(§4) At the end of treatment, cells were removed with trypsin, counted, plated in 6-well plates (300 cells/plate) and incubated for 2-3 weeks in CO2 incubator at 37° C. When colonies reached 40-100 cells/colony, they were fixed with 100% methanol, stained with 0.5% crystal violet (Sigma), photographed, and the number of clones was quantified using ImageJ program.

Huh-7D12 cells [4] = test: Clonogenic survival; type: cell-based, human
Description: as §2, §4

[5] = tested on: N1S1 Hepatocellular Carcinoma; test: N1S1 orthotopic HCC rat model, tumor volume by MRI; type: in vivo; settings: Sprague Dawley rats, N1S1 liver tumor, sorafenib 10 mg/kg/day IP + TTFields 150 kHz 2.86 V/cm
Description: In this experiment, the volume of the tumor was measured using MRI on day 6 (one day before treatment start) and day 14 (one day after the end of treatment); and each data point in FIG. 7 represents the volume of the tumor on day 14 divided by the volume of the tumor on day 6. Thus, numbers greater than 1 represent growth in the tumor volume, and numbers smaller than 1 represent a tumor that has shrunk between day 6 and day 14.
In the first part, the efficacy of different Sorafenib concentrations in combination with TTFields was tested, and one concentration was used during future experiments (10 mg/kg/day over 5 days). In the following experiments, the combined treatment of a single Sorafenib concentration and TTFields (150 kHz) was tested.
All animals were injected orthotopically to the left lobe of the liver with N1S1 Hepatocellular Carcinoma model (Garin E. et al., 2005) by day 0 as described in SOP-BI-036. The peritoneum was closed using sutures and the wound was closed using clips. On day 6, all animals underwent first MRI (as described in SOP-BI-029) and were randomly divided into groups. […]
Tumor volume was determined based on MRI scans on days 7, 14 and day 21 after injection. […] Tumor volume was measured by manual segmentation of the tumor using ITK-SNAP version 3.6.0-rc1 free software.

HepG2 cells [6] = test: Apoptosis induction (FITC Annexin V / 7-AAD flow cytometry)
Description: (§5) The exemplary effects of the combined treatment of TTFields and sorafenib was tested using the following human HCC cell lines: HepG2 (ATCC) and Huh-7D12 (Sigma). All cells were grown in a humidified incubator supplied with 5% CO2. HepG2 were maintained in EMEM, supplemented with 10% FBS, 2 mmol/L glutamine, Pen-Strep solution (100 units/ml Penicillin and 0.1 mg/ml Streptomycin), 1 mmol/L sodium pyruvate and 1% NEAA. […] Sorafenib was obtained from BioVision, USA.
(§6) For apoptosis analysis, cells were removed with Trypsin immediately after 72 h treatment, washed twice with ice-cold PBS with 1% FBS, and stained using FITC Annexin V Apoptosis Detection Kit and 7-AAD (BioLegend, USA). Early, late, and total apoptosis was then quantified using the EC800 flow cytometer (Sony Biotechnology, Japan).

Huh-7D12 cells [7] = test: as above
Description: as §5, §6

CNC(=O)c1cc(Oc2ccc(NC(=O)Nc3ccc(Cl)c(C(F)(F)F)c3)cc2)ccn1 [sorafenib, 4-[4-[[4-chloro-3-(trifluoromethyl)phenyl]carbamoylamino]phenoxy]-N-methylpyridine-2-carboxamide]
cytotoxicity of combined treatment of TTFields and sorafenib (HepG2 cells [1]; HepG2, sorafenib 0.1-3.0 μM + TTFields 150 kHz 1.0 V/cm, 72 hours, 2-way ANOVA p<0.001): enhanced cytotoxicity | overall effect, sorafenib in combination with TTFields vs sorafenib alone (HepG2 cells [1]; HepG2, sorafenib 0.1-3.0 μM, TTFields 1.0 V/cm): improvement provided by TTFields can be seen even at low levels of sorafenib | IC50 (HepG2 cells [1]; Homo sapiens, HepG2, sorafenib alone, 72 hours, read-out: IC50 (number of cells, percentage of control)): ~1000 nM | IC50 (Huh-7D12 cells [2]; Homo sapiens, Huh-7D12, sorafenib alone, 72 hours, read-out: IC50 (number of cells, percentage of control)): ~1000 nM | cytotoxicity of combined treatment of TTFields and sorafenib (Huh-7D12 cells [2]; Huh-7D12, sorafenib 0.1-3.0 μM + TTFields 150 kHz 1.7 V/cm, 72 hours, 2-way ANOVA p<0.001): enhanced cytotoxicity | overall effect, sorafenib in combination with TTFields vs sorafenib alone (Huh-7D12 cells [2]; Huh-7D12, sorafenib 0.1-3.0 μM, TTFields 1.7 V/cm): improvement provided by TTFields can be seen even at low levels of sorafenib | clonogenic potential, sorafenib monotherapy (HepG2 cells [3]; HepG2, escalating dose of sorafenib alone): reduction in the clonogenic potential | clonogenic survival, combined treatment of TTFields and sorafenib (HepG2 cells [3]; HepG2, sorafenib + TTFields 150 kHz 1.0 V/cm, 72 hours): additional reduction in the clonogenic survival | clonogenic potential, sorafenib monotherapy (Huh-7D12 cells [4]; Huh-7D12, escalating dose of sorafenib alone): reduction in the clonogenic potential | clonogenic survival, combined treatment of TTFields and sorafenib (Huh-7D12 cells [4]; Huh-7D12, sorafenib + TTFields 150 kHz 1.7 V/cm, 72 hours): additional reduction in the clonogenic survival | tumor volume (day 14 divided by day 6, MRI), combination of TTFields and sorafenib [5]: synergistic decrease in tumor volume | apoptotic events, sorafenib alone (HepG2 cells [6]; HepG2, 72 hours, sorafenib from no drug to 3 μM): increased apoptotic events | additional increase in apoptosis, sorafenib with TTFields (HepG2 cells [6]; HepG2, sorafenib + TTFields 150 kHz 1.0 V/cm, 72 hours, range stated for both cell lines): 10-45% | apoptotic events, sorafenib alone (Huh-7D12 cells [7]; Huh-7D12, 72 hours, sorafenib from no drug to 3 μM): increased apoptotic events | additional increase in apoptosis, sorafenib with TTFields (Huh-7D12 cells [7]; Huh-7D12, sorafenib + TTFields 150 kHz 1.7 V/cm, 72 hours, range stated for both cell lines): 10-45%
